From patent publication US7883708B2, “Substance derived from basidiomycetes culture, method for producing it and its use” (Amino Up Chemical Co., Ltd., priority 1999, dated 2011)
In brackets after ≈: the same amount, converted by molar mass.

How the values were obtained:
Experiment in all cases: 50% growth suppression concentration (IC50) of tumor cells (MTT)
Format in all cases: cell-based
[1] = tested on: Colon 26 mouse colorectal cancer cells; details: 48 hours, read-out: IC50 (μg/ml) Colon 26
From the text: (§1) 3LL mouse lung cancer cells, Colon 26 mouse colorectal cancer cells, PC3 human prostatic cancer cells, Du145 human prostatic cells, and LNCAP human prostatic cells were used and 50% suppression concentrations (IC50) of Invention Substance 1, genistein standard preparation (produced by Sigma) and basidiomycetes culture (product obtained by cultivating basidiomycetes in the absence of isoflavones-containing material under the same conditions as in Example 1) on these cells were examined.
(§2) That is, Invention Substance 1, genistein standard preparation or basidiomycetes culture was suspended in distilled water and were autoclaved and added to the cells in a continuously varied concentration of from 1,000 μg/ml to 0.1 μg/ml. The tumor cell suspension was adjusted to 1-2×10^5 cells/well with DMEM medium containing 10% FBS and cultivated at 37° C. for 48 hours. Then, after addition of Invention Substance 1 or genistein standard preparation, the cells were further cultivated for additional 48 hours, followed by examining cell growth by the MTT method using a microplate reader. Lower numerical values indicate that 50% suppression of the growth of cultured cancer cells is possible at lower concentrations.

[2] = tested on: PC3 human prostatic cancer cells; details: 48 hours, read-out: IC50 (μg/ml) PC3
From the text: as §1, §2

[3] = tested on: 3LL mouse lung cancer cells; details: 48 hours, read-out: IC50 (μg/ml) 3LL
From the text: as §1, §2

[4] = tested on: LNCAP human prostatic cells; details: 48 hours, read-out: IC50 (μg/ml) LNCaP
From the text: as §1, §2

[5] = tested on: Du145 human prostatic cells; details: DU-145, 48 hours, read-out: IC50 (μg/ml) Du145
From the text: as §1, §2

- IC50 [1]: 51.2 µg/mL (≈ 190 µM)
- IC50 [2]: 35.8 µg/mL (≈ 132 µM)
- IC50 [3]: 31.8 µg/mL (≈ 118 µM)
- IC50 [4]: 69.4 µg/mL (≈ 257 µM)
- IC50 [5]: 55.3 µg/mL (≈ 205 µM)
SMILES: O=c1c(-c2ccc(O)cc2)coc2cc(O)cc(O)c12 [Genistein standard preparation, genistein]
